From patent US20120189543A1, “Compositions and Methods for Detecting and Treating Implant Loosening and Osteolysis” (priority 2009, published 2012)

Columns and labels:
[1] = tested on: pro-inflammatory cytokine response (e.g., TNF and IL-1); assay: Particle-induced pro-inflammatory cytokine response in human monocytes; settings: pretreatment of PMMA challenged monocytes
Protocol: (§1) Cells were cultured for 24 hours at a cell density of 10^6 cells/mL in a-MEM medium (Invitrogen, Carlsbad, Calif.) supplemented with 10% fetal bovine serum (VWR, West Chester, Pa.) and 1% antibiotic/antimycotic (Invitrogen, Carlsbad, Calif.) in the presence of 10 ng/mL human M-CSF (Peprotech, Rocky Hill, N.J.) in 24-well tissue culture plates (1 mL/well). Cells were then pulsed for 4 hours with P-Dex (5 μM) or free Dex (dexamethasone phosphate sodium, 0.6 μM), washed and replenished with fresh medium. […] After 24 hours, cells were treated +/−PMMA particles (30 particles/cell) for 3 hours. Total cellular RNA was prepared (RNeasy, Qiagen) and analyzed by real-time RT-PCR as previously described for inflammatory cytokines (IL 1-α, IL-1- β).

IL-1α mRNA = assay: PMMA particle-induced IL-1α mRNA in cultured human monocytes (real-time RT-PCR); settings: 4 hours pulse P-Dex 5 μM or free Dex 0.6 μM, PMMA 3 hours; n=3; p<0.05
Protocol: as §1

IL-1β mRNA = assay: PMMA particle-induced IL-1β mRNA in cultured human monocytes (real-time RT-PCR); settings: 4 hours pulse P-Dex 5 μM or free Dex 0.6 μM, PMMA 3 hours; n=3
Protocol: as §1

[2] = tested on: PMMA particle implantation site (calvaria); design: species or system Swiss Webster mice; settings: mouse, in vivo
Excerpt: The group injected with PBS was used as a negative control and was given the same dose of P-IRDye. The mice were imaged prior to and daily after contrast agent injection using an XENOGEN IVIS® 200 Series Imaging System (Hopkinton, Mass.) to evaluate the distribution of the HPMA copolymer conjugate continuously for the 6 days.

Compound	effect of pretreatment on particle-induced pro-inflammatory cytokine response [1]	IL-1α mRNA level of PMMA group compared with treated group (IL-1α mRNA)	IL-1β mRNA level of PMMA group compared with treated group (IL-1β mRNA)	NIR signal at particle implantation site, % of the original signal intensity [2] [%]	persistence of the P-IRDye signal [2]
C[C@@H]1C[C@H]2[C@@H]3CCC4=CC(=O)C=C[C@]4(C)[C@@]3(F)[C@@H](O)C[C@]2(C)[C@@]1(O)C(=O)COP(=O)([O-])[O-].[Na+].[Na+] [Dex, dexamethasone phosphate sodium]	significant repression	significantly higher	higher (but not significantly)		
IRDye 800CW-labeled HPMA Copolymer [P-IRDye]				60	over 7 days
